Assay results as given in ChEMBL document CHEMBL1136193, “Identification of a new chemical class of potent angiogenesis inhibitors based on conformational considerations and database searching” (Bioorg Med Chem Lett, 2003).

Columns and labels:
[1] = biological target: Insulin-like growth factor 1 receptor (Homo sapiens, UniProt P08069); experiment: Inhibition of Insulin-like growth factor I receptor
[2] = biological target: Cyclin-dependent kinase 1 (Homo sapiens, UniProt P06493); experiment: Inhibition of Cyclin-dependent kinase 1
[3] = biological target: Mast/stem cell growth factor receptor Kit (Homo sapiens, UniProt P10721); experiment: Inhibition of Proto-oncogene tyrosine-protein kinase Kit
[4] = biological target: cAMP-dependent protein kinase (PKA) (Homo sapiens, UniProt P22694+P17612+P22612); experiment: Inhibition of Protein kinase A; type: protein assay
[5] = biological target: Vascular endothelial growth factor receptor 2 (Homo sapiens, UniProt P35968); experiment: Inhibition of Vascular endothelial growth factor receptor 2
[6] = biological target: Hepatocyte growth factor receptor (Homo sapiens, UniProt P08581); experiment: Inhibition of Met proto-oncogene tyrosine kinase
[7] = biological target: Vascular endothelial growth factor receptor 1 (Homo sapiens, UniProt P17948); experiment: Inhibition of vascular endothelial growth factor receptor 1

Sequence of Vascular endothelial growth factor receptor 2 (P35968 whole entry): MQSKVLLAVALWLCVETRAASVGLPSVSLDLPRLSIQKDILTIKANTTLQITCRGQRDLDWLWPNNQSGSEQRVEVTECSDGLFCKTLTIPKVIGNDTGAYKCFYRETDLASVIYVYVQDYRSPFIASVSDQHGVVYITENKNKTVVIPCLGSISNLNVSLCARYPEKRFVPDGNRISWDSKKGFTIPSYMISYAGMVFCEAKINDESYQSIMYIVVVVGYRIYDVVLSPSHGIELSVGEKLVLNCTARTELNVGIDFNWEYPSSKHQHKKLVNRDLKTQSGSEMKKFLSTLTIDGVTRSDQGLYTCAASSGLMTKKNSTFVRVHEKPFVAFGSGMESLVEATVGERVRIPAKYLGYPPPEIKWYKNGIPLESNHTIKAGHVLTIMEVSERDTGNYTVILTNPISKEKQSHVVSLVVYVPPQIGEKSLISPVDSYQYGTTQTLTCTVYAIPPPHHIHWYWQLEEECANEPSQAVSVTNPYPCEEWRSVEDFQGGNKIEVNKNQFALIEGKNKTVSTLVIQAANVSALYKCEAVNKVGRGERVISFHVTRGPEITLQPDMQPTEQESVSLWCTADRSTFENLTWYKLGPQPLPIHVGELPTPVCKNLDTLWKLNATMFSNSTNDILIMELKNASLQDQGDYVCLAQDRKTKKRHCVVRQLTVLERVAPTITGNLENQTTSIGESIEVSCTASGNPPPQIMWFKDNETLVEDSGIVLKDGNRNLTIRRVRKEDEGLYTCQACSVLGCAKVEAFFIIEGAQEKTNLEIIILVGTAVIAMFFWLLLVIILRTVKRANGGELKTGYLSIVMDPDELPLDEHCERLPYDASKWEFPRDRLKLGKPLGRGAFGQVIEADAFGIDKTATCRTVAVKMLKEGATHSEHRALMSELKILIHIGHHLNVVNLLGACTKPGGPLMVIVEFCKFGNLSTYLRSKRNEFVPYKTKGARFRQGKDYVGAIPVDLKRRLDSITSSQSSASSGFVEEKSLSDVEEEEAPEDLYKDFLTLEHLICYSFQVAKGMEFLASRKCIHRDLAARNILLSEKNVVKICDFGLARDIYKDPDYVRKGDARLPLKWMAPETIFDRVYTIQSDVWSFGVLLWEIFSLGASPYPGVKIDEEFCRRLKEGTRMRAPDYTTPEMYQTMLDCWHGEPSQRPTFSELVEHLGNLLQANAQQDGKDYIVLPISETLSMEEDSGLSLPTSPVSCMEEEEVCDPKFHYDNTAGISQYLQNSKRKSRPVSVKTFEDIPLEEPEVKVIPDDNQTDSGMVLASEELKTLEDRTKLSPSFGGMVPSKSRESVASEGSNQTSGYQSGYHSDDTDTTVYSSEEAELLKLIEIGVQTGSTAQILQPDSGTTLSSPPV
Sequence of Hepatocyte growth factor receptor (P08581 whole entry): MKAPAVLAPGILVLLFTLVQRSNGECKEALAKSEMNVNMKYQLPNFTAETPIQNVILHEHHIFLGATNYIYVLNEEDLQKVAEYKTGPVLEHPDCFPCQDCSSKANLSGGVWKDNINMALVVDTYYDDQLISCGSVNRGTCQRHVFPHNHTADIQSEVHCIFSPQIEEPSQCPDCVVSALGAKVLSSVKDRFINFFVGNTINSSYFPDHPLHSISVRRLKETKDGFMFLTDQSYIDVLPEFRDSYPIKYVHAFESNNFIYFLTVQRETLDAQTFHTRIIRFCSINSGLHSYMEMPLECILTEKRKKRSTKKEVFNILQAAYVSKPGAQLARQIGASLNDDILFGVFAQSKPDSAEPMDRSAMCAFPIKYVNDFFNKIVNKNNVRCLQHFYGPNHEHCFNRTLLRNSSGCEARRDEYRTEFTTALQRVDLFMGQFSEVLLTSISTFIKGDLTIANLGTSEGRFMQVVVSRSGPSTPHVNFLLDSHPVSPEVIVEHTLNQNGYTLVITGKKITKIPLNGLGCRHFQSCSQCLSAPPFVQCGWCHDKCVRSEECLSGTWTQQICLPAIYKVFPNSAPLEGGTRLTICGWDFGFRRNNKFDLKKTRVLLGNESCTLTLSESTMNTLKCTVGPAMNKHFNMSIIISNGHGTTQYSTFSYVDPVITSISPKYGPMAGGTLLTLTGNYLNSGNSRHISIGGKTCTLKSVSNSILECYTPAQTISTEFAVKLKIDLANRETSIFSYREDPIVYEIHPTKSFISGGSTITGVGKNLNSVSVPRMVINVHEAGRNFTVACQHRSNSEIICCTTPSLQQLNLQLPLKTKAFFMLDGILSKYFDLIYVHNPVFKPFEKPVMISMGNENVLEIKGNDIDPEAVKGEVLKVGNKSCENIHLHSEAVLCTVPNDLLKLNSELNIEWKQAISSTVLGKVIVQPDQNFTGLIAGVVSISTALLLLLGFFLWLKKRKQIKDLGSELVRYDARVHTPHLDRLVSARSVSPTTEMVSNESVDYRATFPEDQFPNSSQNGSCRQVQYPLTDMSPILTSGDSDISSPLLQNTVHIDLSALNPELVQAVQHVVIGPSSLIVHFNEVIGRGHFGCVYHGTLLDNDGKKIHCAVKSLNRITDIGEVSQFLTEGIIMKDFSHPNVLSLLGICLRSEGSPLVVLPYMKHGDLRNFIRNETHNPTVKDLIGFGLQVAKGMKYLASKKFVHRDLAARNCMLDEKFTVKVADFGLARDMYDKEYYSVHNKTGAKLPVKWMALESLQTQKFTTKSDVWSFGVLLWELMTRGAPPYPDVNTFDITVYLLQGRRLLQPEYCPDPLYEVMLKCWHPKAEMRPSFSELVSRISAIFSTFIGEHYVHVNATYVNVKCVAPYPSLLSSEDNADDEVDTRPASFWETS
Sequence of Insulin-like growth factor 1 receptor (P08069 31-736 limits assumed): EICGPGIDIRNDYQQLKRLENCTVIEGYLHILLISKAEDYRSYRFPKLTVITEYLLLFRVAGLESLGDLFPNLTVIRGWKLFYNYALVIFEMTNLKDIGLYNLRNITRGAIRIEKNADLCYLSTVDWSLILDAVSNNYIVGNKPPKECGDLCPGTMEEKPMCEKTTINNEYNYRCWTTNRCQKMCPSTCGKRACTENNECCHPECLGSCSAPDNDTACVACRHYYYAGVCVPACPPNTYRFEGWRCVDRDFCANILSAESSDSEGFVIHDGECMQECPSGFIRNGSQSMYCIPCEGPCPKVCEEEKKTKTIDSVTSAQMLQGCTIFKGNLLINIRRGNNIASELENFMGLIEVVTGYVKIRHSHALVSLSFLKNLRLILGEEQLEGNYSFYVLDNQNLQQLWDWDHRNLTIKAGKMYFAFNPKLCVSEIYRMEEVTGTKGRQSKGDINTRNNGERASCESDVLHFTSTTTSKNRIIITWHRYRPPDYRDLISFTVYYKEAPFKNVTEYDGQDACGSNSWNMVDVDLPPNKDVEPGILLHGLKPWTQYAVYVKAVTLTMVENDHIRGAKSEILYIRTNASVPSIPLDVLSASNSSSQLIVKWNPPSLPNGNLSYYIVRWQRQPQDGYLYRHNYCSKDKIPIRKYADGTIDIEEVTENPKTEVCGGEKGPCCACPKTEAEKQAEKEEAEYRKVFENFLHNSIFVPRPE
Sequence of Insulin-like growth factor 1 receptor (P08069 741-1367 limits assumed): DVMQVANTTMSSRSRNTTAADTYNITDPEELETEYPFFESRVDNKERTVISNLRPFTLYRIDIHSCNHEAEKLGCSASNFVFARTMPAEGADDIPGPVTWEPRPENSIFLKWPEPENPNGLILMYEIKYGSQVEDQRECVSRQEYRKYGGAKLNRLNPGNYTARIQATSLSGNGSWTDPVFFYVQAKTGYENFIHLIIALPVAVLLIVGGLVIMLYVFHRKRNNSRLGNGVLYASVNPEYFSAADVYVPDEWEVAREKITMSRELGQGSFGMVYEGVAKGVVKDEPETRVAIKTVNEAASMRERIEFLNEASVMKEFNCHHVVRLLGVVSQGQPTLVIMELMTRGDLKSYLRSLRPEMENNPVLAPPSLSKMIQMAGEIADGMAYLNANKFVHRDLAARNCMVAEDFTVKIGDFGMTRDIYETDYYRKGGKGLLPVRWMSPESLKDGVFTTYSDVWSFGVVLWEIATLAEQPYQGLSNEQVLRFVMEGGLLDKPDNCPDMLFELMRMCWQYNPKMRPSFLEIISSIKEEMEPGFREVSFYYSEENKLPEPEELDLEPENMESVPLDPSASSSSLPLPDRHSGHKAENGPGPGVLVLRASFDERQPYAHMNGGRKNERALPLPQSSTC
Sequence of Mast/stem cell growth factor receptor Kit (P10721 whole entry): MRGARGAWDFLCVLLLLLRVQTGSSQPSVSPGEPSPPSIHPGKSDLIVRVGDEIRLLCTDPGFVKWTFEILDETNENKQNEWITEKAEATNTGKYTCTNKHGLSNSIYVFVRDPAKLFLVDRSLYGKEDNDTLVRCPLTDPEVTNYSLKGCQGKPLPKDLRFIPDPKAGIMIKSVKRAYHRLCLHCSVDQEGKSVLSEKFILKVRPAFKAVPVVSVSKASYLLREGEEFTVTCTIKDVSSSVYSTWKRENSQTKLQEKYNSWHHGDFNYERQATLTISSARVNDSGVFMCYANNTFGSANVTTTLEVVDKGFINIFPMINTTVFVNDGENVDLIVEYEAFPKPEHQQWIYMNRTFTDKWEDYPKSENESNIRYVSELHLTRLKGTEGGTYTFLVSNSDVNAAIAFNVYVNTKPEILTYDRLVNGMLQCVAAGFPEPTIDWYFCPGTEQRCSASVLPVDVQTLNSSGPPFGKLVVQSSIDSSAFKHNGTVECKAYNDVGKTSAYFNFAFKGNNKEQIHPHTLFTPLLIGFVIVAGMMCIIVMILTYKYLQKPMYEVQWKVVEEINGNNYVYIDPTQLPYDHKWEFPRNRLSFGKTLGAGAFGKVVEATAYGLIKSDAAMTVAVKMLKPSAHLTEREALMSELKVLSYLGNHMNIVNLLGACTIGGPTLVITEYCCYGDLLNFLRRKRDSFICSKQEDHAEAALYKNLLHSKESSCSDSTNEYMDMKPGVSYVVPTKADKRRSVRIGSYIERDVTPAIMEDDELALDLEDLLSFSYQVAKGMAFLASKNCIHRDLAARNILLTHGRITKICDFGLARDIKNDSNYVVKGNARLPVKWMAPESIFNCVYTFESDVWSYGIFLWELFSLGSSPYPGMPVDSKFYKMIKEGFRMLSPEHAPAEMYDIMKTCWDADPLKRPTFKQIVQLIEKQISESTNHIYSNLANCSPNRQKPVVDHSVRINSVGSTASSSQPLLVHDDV

Row | Compound | IC50 [1] [µM] | IC50 [2] [µM] | IC50 [3] [µM] | IC50 [4] [µM] | IC50 [5] [µM] | IC50 [6] [µM] | IC50 [7] [µM]
1 | O=C(Nc1ccc(Cl)cc1)c1ccccc1NCc1ccncc1 | > 10 | > 10 | 0.24 | > 10 | 0.02 | > 10 | 
2 | O=C(Nc1ccccc1F)c1ccccc1NCc1ccc(F)cc1 |  |  |  |  | 3.7 |  | 23
